For one compound, inhibition results are on record in PMC6934184, “Selective DNA-PKcs inhibition extends the therapeutic index of localized radiotherapy and chemotherapy” (The Journal of Clinical Investigation, 2019).

As usually defined, the inhibition is the relative decrease from the control value, in per cent.

This assay concerns the target T1, BRSK1 (SAD1) (Homo sapiens, UniProt Q8TDC3).
T1 construct: purchased Thermo Fisher Scientific (Life Technologies) SelectScreen
Put plainly: SelectScreen Z'LYTE. It is filed as biochemical. Put shortly:
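SelectScreen broad panel; activity (Z'LYTE, Adapta) plus binding formats. ATP: Km app for CSF1R Z'LYTE; 10 for CAMK1 Adapta. Readout = % per kinase.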

T1 sequence (Q8TDC3 whole entry): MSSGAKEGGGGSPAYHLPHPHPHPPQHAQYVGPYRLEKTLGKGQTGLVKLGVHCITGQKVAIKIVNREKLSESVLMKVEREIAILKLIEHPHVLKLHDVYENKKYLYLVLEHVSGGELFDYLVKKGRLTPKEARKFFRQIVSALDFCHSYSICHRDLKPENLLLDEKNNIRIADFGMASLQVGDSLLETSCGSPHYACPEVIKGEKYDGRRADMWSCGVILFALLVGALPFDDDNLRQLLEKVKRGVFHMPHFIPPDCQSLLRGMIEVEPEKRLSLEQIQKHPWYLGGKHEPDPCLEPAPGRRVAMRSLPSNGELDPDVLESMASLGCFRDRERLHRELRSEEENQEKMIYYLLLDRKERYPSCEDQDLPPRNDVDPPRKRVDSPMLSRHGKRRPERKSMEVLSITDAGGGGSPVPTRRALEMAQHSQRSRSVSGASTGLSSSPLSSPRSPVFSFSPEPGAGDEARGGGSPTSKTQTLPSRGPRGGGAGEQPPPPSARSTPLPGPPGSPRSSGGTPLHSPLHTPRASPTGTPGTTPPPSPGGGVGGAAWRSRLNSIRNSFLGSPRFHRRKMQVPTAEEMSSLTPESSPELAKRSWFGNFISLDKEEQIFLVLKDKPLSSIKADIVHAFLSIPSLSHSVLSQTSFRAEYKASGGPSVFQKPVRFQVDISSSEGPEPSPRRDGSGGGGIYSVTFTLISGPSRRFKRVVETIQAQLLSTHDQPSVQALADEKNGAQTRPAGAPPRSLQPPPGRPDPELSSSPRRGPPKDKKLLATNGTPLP

`CN(C(=O)CN1CCOCC1)c1ccc2sc3c(-c4cccc5c(=O)cc(N6CC7CCC(C6)O7)oc45)cccc3c2c1` [NU5455]: the inhibition at 1 µM was -1.1%.
